Results: patent US20260053861A1, “CELL COMPOSITIONS AND METHODS OF USING THE SAME” (THE REGENTS OF THE UNIVERSITY OF CALIFORNIA, priority 2022, published 2026)
Where a name gives a salt, the structure may show the parent alone.

The compounds below were run on hPSC-SCs. Conditions: not given.

SMILES	z.score.t
CN1CCc2cc3c(cc2[C@H]1[C@@H]1OC(=O)c2c1ccc1c2OCO1)OCO3 [Bicuculline (+)]	0.5437
COc1cc2c(cc1O)C[C@H]1c3c(cc(O)c(OC)c3-2)CCN1C [Boldine]	0.767
CCCCOC(=O)c1ccc(O)cc1 [Butylparaben]	−0.2359
CN1CC[C@]23c4ccccc4N[C@H]1[C@]21CCN(C)[C@H]3Nc2ccccc21 [Calycanthine]	0.4849
NC(N)=NOCC[C@H](N)C(=O)O.O.O=S(=O)(O)O [Canavanine sulfate monohydrate (L, +)]	1.095

Same assay, conditions: HTS viability of hPSC-SCs in the presence of 30 mM glucose; Prestwick library; Table S4

SMILES	z.score.t
NCCc1cc[nH]n1 [Betazole hydrochloride]	1.681
CC(C[N+](C)(C)C)OC(N)=O (stereo not drawn) [Bethanechol chloride]	0.3236
C[N+]1(C)C[C@H](O)C[C@H]1C(=O)[O-] [Betonicine]	1.194
C=C(C)[C@@H]1CC[C@]2(CO)CC[C@]3(C)[C@H](CC[C@@H]4[C@@]5(C)CC[C@H](O)C(C)(C)[C@@H]5CC[C@]43C)[C@@H]12 [Betulin]	−1.025
C=C(C)[C@@H]1CC[C@]2(C(=O)O)CC[C@]3(C)[C@H](CC[C@@H]4[C@@]5(C)CC[C@H](O)C(C)(C)[C@@H]5CC[C@]43C)[C@@H]12 [Betulinic acid]	−1.832
CC(C)(Oc1ccc(CCNC(=O)c2ccc(Cl)cc2)cc1)C(=O)O [Bezafibrate]	1.266
O=C(O)CCCC[C@@H]1SC[C@@H]2NC(=O)N[C@@H]21 [Biotin]	0.2189
OC(CCN1CCCCC1)(c1ccccc1)C1CC2C=CC1C2 (stereo not drawn) [Biperiden hydrochloride]	0.04918
CC(=O)Oc1ccc(C(c2ccc(OC(C)=O)cc2)c2ccccn2)cc1 [Bisacodyl]	0.4849
CC(C)NCC(O)COc1ccc(COCCOC(C)C)cc1 (stereo not drawn) [Bisoprolol fumarate]	−0.1003
CC[N+](C)(C)Cc1ccccc1Br [Bretylium tosylate]	−0.3895
CCN[C@H]1CN(CCCOC)S(=O)(=O)c2sc(S(N)(=O)=O)cc21 [Brinzolamide]	0.7491
CCN(CC)CCNC(=O)c1cc(Br)c(N)cc1OC [Bromopride]	−0.3895
O=C(CCCN1CCC(O)(c2ccc(Br)cc2)CC1)c1ccc(F)cc1 [Bromperidol]	1.239
CN(C)CCC(c1ccc(Br)cc1)c1ccccn1 (stereo not drawn) [Brompheniramine maleate]	−0.8478
CCCC(=O)Nc1ncnc2c1ncn2[C@@H]1O[C@@H]2COP(=O)(O)O[C@H]2[C@H]1OC(=O)CCC [Bucladesine sodium salt]	0.7727
CCCC1O[C@@H]2C[C@H]3[C@@H]4CCC5=CC(=O)C=C[C@]5(C)[C@H]4[C@@H](O)C[C@]3(C)[C@]2(C(=O)CO)O1 (stereo partly drawn) [Budesonide]	1.74
CCCCOc1ccc(CC(=O)NO)cc1 [Bufexamac]	−0.6623
COc1cc(OC)c(C(=O)CCCN2CCCC2)c(OC)c1 [Buflomedil hydrochloride]	0.3641
CCCCNc1cc(C(=O)O)cc(S(N)(=O)=O)c1Oc1ccccc1 [Bumetanide]	1.181
CCCCN1CCCCC1C(=O)Nc1c(C)cccc1C (stereo not drawn) [Bupivacaine hydrochloride]	−0.3156
CC(NC(C)(C)C)C(=O)c1cccc(Cl)c1 (stereo not drawn) [Bupropion hydrochloride]	2.803
CCCCN(CCCC)CCCOC(=O)c1ccc(N)cc1 [Butacaine]	−0.3023
CCCCOC(=O)c1ccc(N)cc1 [Butamben]	0.8465
Clc1ccc(CCC(Cn2ccnc2)Sc2c(Cl)cccc2Cl)cc1 (stereo not drawn) [Butoconazole nitrate]	−1.151
O=C(O)/C=C/c1ccc(O)c(O)c1 [Caffeic acid]	0.9865
C=C1CC[C@H](O)C/C1=C/C=C1\CCC[C@]2(C)[C@@H]([C@H](C)/C=C/[C@H](C)C(C)C)CC[C@@H]12 [Calciferol]	0.4451
CC[C@@]1(O)C(=O)OCc2c1cc1n(c2=O)Cc2cc3ccccc3nc2-1 [Camptothecine (S, +)]	−1.163
